Reference: patent publication US8178658B2 (Dow AgroSciences, LLC, priority 2008, dated 2012)

How the values were obtained:
[1] = tested on: beet armyworm (BAW; Spodoptera exigua: Lepidoptera); assay: 96-well microtiter plate-based high throughput (HTS) diet bioassay on beet armyworm (BAW HTS); type: in vivo; details: BAW eggs, 12 μg test compound per well, mortality at 6 d post-treatment, mortality class; for pest or weed control at 12 µg/well, 12 µg/well: Spodoptera exigua, 144 h, read-out: BAW HTS
In short: (§1)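 Two diet-incorporation-style surface tests were run. Eggs infested treated diet (12 μg/well) in plates incubated dark at 29° C, with mortality taken on day 6 from six replicates. Separately, second-instar larvae fed on treated diet (50 μg/cm^2) at 25° C, 14:10 L:D, with six-day mortality averaged over eight wells.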

[2] = tested on: beet armyworm (BAW; Spodoptera exigua: Lepidoptera); assay: 128-well diet tray assay on beet armyworm (BAW 50); type: in vivo; details: 128-well diet tray assay, 50 μg/cm^2 of test compound on diet, second instar BAW larvae, mortality class; for pest or weed control at 50 µg/cm2, 50 µg/cm2: Spodoptera exigua, 144 h, read-out: BAW 50 ug/cm2
In short: as §1

[3] = 96-well microtiter plate HTS diet assay

SMILES	BAW HTS ([1]; 96-well HTS diet assay)	BAW HTS [1, 3]	BAW 50 ug/cm2 [2]	pest or weed control at 12 µg/well, 12 µg/well ([1]; 96-well HTS diet assay)	pest or weed control at 50 µg/cm2, 50 µg/cm2 [2]
CCOC1C(OC)C(C)OC(ON=Cc2ccc(-c3ncc(-c4ccccc4C)cn3)cc2)C1OC (centres unmarked) [Compound 152]	B (either (1) the compound was tested and less than 50 percent mortality was observed or (2) the compound was not tested)	B (either (1) the compound was tested and less than 50 percent mortality was observed or (2) the compound was not tested)	A (the compound was tested and at least 50 percent mortality was observed)	–	–
CCOC1C(OC)C(C)OC(ON=Cc2ccc(-c3ncc(-c4ccc(F)cc4)cn3)cc2)C1OC (centres unmarked) [Compound 153]	B (either (1) the compound was tested and less than 50 percent mortality was observed or (2) the compound was not tested)	B (either (1) the compound was tested and less than 50 percent mortality was observed or (2) the compound was not tested)	A (the compound was tested and at least 50 percent mortality was observed)	–	–
CCOC1C(OC)C(C)OC(ON=Cc2ccc(-c3ncc(-c4ccc(C#N)cc4)cn3)cc2)C1OC (centres unmarked) [Compound 154]	B (either (1) the compound was tested and less than 50 percent mortality was observed or (2) the compound was not tested)	B (either (1) the compound was tested and less than 50 percent mortality was observed or (2) the compound was not tested)	A (the compound was tested and at least 50 percent mortality was observed)	–	–
CCOC1C(OC)C(C)OC(ON=Cc2ccc(-c3ncc(-c4ccccc4OC(F)(F)F)cn3)cc2)C1OC (centres unmarked) [Compound 156]	B (either (1) the compound was tested and less than 50 percent mortality was observed or (2) the compound was not tested)	B (either (1) the compound was tested and less than 50 percent mortality was observed or (2) the compound was not tested)	A (the compound was tested and at least 50 percent mortality was observed)	–	–
COC1C(C)OC(ON=Cc2ccc(-c3ncnc(-c4ccc(C(F)(F)F)cc4)n3)cc2)C(OC)C1OC (centres unmarked) [Compound 157]	A (the compound was tested and at least 50 percent mortality was observed)	A (the compound was tested and at least 50 percent mortality was observed)	B (either (1) the compound was tested and less than 50 percent mortality was observed or (2) the compound was not tested)	–	–
COC1C(C)OC(ON=Cc2ccc(-c3ncnc(-c4ccc(OC(F)(F)F)cc4)n3)cc2)C(OC)C1OC (centres unmarked) [Compound 158]	A (the compound was tested and at least 50 percent mortality was observed)	A (the compound was tested and at least 50 percent mortality was observed)	A (the compound was tested and at least 50 percent mortality was observed)	–	–
COC1C(C)OC(ON=Cc2ccc(-c3cncc(-c4ccc(OC(F)(F)F)cc4)n3)cc2)C(OC)C1OC (centres unmarked) [Compound 159]	A (the compound was tested and at least 50 percent mortality was observed)	A (the compound was tested and at least 50 percent mortality was observed)	A (the compound was tested and at least 50 percent mortality was observed)	–	–
CCOC1C(OC)C(C)OC(ON=Cc2ccc(N3CCN(c4ccc(OC(F)(F)F)cc4)CC3)nc2)C1OC (centres unmarked) [Compound 160]	A (the compound was tested and at least 50 percent mortality was observed)	A (the compound was tested and at least 50 percent mortality was observed)	A (the compound was tested and at least 50 percent mortality was observed)	–	–
CCOC1C(OC)C(C)OC(ON=Cc2ccc(N3CCN(c4ccc(C(F)(F)F)cn4)CC3)cc2)C1OC (centres unmarked) [Compound 161]	A (the compound was tested and at least 50 percent mortality was observed)	A (the compound was tested and at least 50 percent mortality was observed)	A (the compound was tested and at least 50 percent mortality was observed)	–	–
CCCOC1C(OC)C(C)OC(ON=Cc2ccc(N3CCN(c4ccc(OC(F)(F)F)cc4)CC3)cc2)C1OC (centres unmarked) [Compound 162]	B (either (1) the compound was tested and less than 50 percent mortality was observed or (2) the compound was not tested)	B (either (1) the compound was tested and less than 50 percent mortality was observed or (2) the compound was not tested)	A (the compound was tested and at least 50 percent mortality was observed)	–	–
CCOC1C(OC)C(C)OC(ON=Cc2ccc(-c3ncc(-c4ccc(SC)cc4)cn3)cc2)C1OC (centres unmarked) [Compound 163]	B (either (1) the compound was tested and less than 50 percent mortality was observed or (2) the compound was not tested)	B (either (1) the compound was tested and less than 50 percent mortality was observed or (2) the compound was not tested)	B (either (1) the compound was tested and less than 50 percent mortality was observed or (2) the compound was not tested)	–	–
COC1C(C)OC(ON=C(C)c2ccc(-c3cn(-c4ccc(OC(F)(F)F)cc4)cn3)s2)C(OC)C1OC (centres unmarked) [Compound 164]	B (either (1) the compound was tested and less than 50 percent mortality was observed or (2) the compound was not tested)	B (either (1) the compound was tested and less than 50 percent mortality was observed or (2) the compound was not tested)	B (either (1) the compound was tested and less than 50 percent mortality was observed or (2) the compound was not tested)	–	–
COC1C(C)OC(ON=C(C)c2ccc(-c3cn(-c4ccc(OC(F)(F)F)cc4)cn3)cc2)C(OC)C1OC (centres unmarked) [Compound 165]	B (either (1) the compound was tested and less than 50 percent mortality was observed or (2) the compound was not tested)	B (either (1) the compound was tested and less than 50 percent mortality was observed or (2) the compound was not tested)	A (the compound was tested and at least 50 percent mortality was observed)	–	–
COC1C(C)OC(ON=C(C)c2cccc(-c3cn(-c4ccc(OC(F)(F)F)cc4)cn3)c2)C(OC)C1OC (centres unmarked) [Compound 166]	B (either (1) the compound was tested and less than 50 percent mortality was observed or (2) the compound was not tested)	B (either (1) the compound was tested and less than 50 percent mortality was observed or (2) the compound was not tested)	A (the compound was tested and at least 50 percent mortality was observed)	–	–
COC1C(C)OC(ON=C(C)c2ccc(Cl)c(-c3cn(-c4ccc(OC(F)(F)F)cc4)cn3)c2)C(OC)C1OC (centres unmarked) [Compound 167]	B (either (1) the compound was tested and less than 50 percent mortality was observed or (2) the compound was not tested)	B (either (1) the compound was tested and less than 50 percent mortality was observed or (2) the compound was not tested)	A (the compound was tested and at least 50 percent mortality was observed)	–	–
COC1C(C)OC(ON=C(C)c2ccc(F)c(-c3cn(-c4ccc(OC(F)(F)F)cc4)cn3)c2)C(OC)C1OC (centres unmarked) [Compound 168]	A (the compound was tested and at least 50 percent mortality was observed)	A (the compound was tested and at least 50 percent mortality was observed)	A (the compound was tested and at least 50 percent mortality was observed)	–	–
CCO[C@@H]1[C@@H](OC)[C@H](C)O[C@@H](O/N=C2\CCc3cc(-c4ncn(-c5ccc(OC(F)(F)F)cc5)n4)ccc32)[C@@H]1OC [Compound 170, 5-[1-(4-trifluoromethoxyphenyl)-1H-[1,2,4]triazol-3-yl]-indan-1-one O-((2S,3R,4R,5S,6S)-4-ethoxy-3,5-dimethoxy-6-methyl-tetrahydropyran-2-yl)-oxime]	–	B (either (1) the compound was tested and less than 50 percent mortality was observed or (2) the compound was not tested)	A (the compound was tested and at least 50 percent mortality was observed)	< 50%	> 50%
CO[C@@H]1[C@@H](OC)[C@H](C)O[C@@H](ONC(=O)c2ccc(-c3cn(-c4ccc(OC(F)(F)F)cc4)cn3)cc2)[C@@H]1OC [Compound 171, 4-[1-(4-trifluoromethoxyphenyl)-1H-imidazol-4-yl]-N-((2S,3R,4R,5S,6S)-3,4,5-trimethoxy-6-methyl-tetrahydropyran-2-yloxy)-benzamide]	–	A (the compound was tested and at least 50 percent mortality was observed)	A (the compound was tested and at least 50 percent mortality was observed)	> 50%	> 50%
